Source: patent US20090036440A1, “NOVEL PYRIMIDINE DERIVATIVES - 816” (AstraZeneca AB, priority 2007, published 2009)
pIC50: −log10 of the molar value.

Assays:
human EphB4 = molecular target: T1, human EphB4 (Homo sapiens, UniProt P54760); assay: In vitro EphB4 cell assay (EphB4 phosphorylation ELISA in EphB4-CHO cells); assay type: cell-based; conditions: ephrin-B2 stimulated EphB4 phosphorylation, read-out: Mean IC50 values obtained using Assay B
T1 construct: to generate full-length EphB4 containing a Myc-His tag at the C-terminus; expressed in transfected cells; EphB4-CHO)
T1 sequence (P54760 16-987): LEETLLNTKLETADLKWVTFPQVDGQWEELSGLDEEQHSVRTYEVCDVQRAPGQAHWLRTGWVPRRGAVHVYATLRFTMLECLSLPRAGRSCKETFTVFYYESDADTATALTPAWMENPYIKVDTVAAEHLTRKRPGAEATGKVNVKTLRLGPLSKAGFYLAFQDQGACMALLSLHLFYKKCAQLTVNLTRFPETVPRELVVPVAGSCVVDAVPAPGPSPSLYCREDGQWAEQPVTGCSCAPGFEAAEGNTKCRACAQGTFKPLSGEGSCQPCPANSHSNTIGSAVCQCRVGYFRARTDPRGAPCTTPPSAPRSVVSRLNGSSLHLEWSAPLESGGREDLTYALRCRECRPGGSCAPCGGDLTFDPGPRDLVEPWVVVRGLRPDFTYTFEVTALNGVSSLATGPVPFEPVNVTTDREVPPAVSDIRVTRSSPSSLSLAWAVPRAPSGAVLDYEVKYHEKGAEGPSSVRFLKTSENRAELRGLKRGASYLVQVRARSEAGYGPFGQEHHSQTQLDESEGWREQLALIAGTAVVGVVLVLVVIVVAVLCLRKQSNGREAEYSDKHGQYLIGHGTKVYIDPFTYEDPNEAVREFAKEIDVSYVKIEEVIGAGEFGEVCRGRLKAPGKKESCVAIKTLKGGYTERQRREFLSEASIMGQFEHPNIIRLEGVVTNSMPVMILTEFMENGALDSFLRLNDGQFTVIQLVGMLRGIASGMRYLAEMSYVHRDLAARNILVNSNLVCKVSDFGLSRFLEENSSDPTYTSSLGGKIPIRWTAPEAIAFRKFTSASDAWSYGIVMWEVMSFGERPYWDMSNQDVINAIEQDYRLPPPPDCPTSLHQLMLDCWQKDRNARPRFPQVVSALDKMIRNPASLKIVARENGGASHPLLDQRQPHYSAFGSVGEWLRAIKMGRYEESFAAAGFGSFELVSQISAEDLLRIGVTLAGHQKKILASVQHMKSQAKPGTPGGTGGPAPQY
Description: The assay identifies inhibitors of cellular EphB4 by measuring a decrease in phosphorylation of EphB4 following treatment of cells with compound. The endpoint assay used a sandwich ELISA to detect EphB4 phosphorylation status. Briefly, Myc-tagged EphB4 from treated cell lysate was captured on the ELISA plate via an anti-c-Myc antibody. The phosphorylation status of captured EphB4 was then measured using a generic phosphotyrosine antibody conjugated to HRP via a calorimetric output catalysed by HRP, with level of EphB4 phosphorylation directly proportional to the colour intensity. Absorbance was measured spectrophotometrically at 450 nm.
Full length human EphB4 (Swiss-Prot Acc. No. P54760) was cloned using standard techniques from cDNA prepared from HUVEC using RT-PCR. The cDNA fragment was then sub-cloned into a pcDNA3.1 expression vector containing a Myc-His epitope tag to generate full-length EphB4 containing a Myc-His tag at the C-terminus (Invitrogen Ltd. Paisley, UK). CHO-K1 cells (LGC Promochem, Teddington, Middlesex, UK, Catalogue No. CCL-61) were maintained in HAM's F12 medium (Sigma-Aldrich Company Ltd, Gillingham, Dorset SP8 4XT, Catalogue No. N4888) containing 10% heat-inactivated foetal calf serum (PAA lab GmbH, Pasching, Austria Catalogue No. PAA-A15-043) and 1% glutamax-1 (Invitrogen Ltd., Catalogue No. 35050-038) at 37° C. with 5% CO2. CHO-K1 cells were engineered to stably express the EphB4-Myc-His construct using standard stable transfection techniques, to generate cells hereafter termed EphB4-CHO.
For each assay, 10,000 EphB4-CHO cells were seeded into each well of Costar 96-well tissue-culture plate (Fisher Scientific UK, Loughborough, Leicestershire, UK., Catalogue No. 3598) and cultured overnight in full media. On day 2, the cells were incubated overnight in 90 μl/well of media containing 0.1% Hyclone stripped-serum (Fisher Scientific UK, Catalogue No. SH30068.02). Test compounds were prepared as 10 mM stock solutions in DMSO (Sigma-Aldrich Company Ltd, Gillingham, Dorset SP8 4XT Catalogue No. 154938) and serially diluted with serum-free media to give a range of test concentrations at 10× the required final concentration. A 10 μl aliquot of each compound dilution was transferred to the cell plates in duplicate wells, and the cells incubated for 1 hour at 37° C. Each plate also contained control wells: a maximum signal was created using untreated cells, and minimum signal corresponding to 100% inhibition was created using wells containing a reference compound known to abolish EphB4 activity. […]

recombinant EphB4 = molecular target: T2, recombinant EphB4 (Homo sapiens, UniProt P54760); assay: In vitro EphB4 enzyme assay (Alphascreen); assay type: biochemical
T2 construct: recombinant active EphB4 (amino acids 563-987; Swiss-Prot Acc; No. P54760); purchased ProQinase GmbH 0178-0000-3
T2 sequence (P54760 563-987): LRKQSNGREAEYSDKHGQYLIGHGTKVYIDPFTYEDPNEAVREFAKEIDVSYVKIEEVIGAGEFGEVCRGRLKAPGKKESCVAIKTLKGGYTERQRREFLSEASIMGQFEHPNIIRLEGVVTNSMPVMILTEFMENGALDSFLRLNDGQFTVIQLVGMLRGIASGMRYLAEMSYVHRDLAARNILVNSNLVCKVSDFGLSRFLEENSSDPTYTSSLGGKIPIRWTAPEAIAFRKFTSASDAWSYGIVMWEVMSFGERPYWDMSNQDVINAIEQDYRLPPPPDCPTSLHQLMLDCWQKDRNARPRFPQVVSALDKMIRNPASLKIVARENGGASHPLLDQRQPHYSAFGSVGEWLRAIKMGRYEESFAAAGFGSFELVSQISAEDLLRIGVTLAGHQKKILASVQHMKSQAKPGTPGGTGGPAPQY
Description: This assay detects inhibitors of EphB4-mediated phosphorylation of a polypeptide substrate using Alphascreen™ luminescence detection technology. Briefly, recombinant EphB4 was incubated with a biotinylated-polypeptide substrate (biotin-poly-GAT) in presence of magnesium-ATP. The reaction was stopped by addition of EDTA, together with streptavidin-coated donor beads which bind the biotin-substrate containing any phosphorylated tyrosine residues. Anti-phosphotyrosine antibodies present on acceptor beads bind to phosphorylated substrate, thus bringing the donor & acceptor beads into close proximity. Subsequent excitation of the donor beads at 680 nm generated singlet oxygen species that interact with a chemiluminescer on the acceptor beads, leading to light emission at 520-620 nm. The signal intensity is directly proportional to the level of substrate phosphorylation and thus inhibition is measured by a decrease in signal.
To ensure that each well contained a total of 120 nl DMSO the wells were all backfilled as required. […] The test range of compounds was 100× the required final concentration.
Assay plates were then incubated at room temperature for 1 hour.
For assays using compounds prepared via acoustic dispensing, the assay mix was adjusted such that the final assay volume of 12 ul contained the same concentration of reagent as 10 ul of assay mix used when aqueous compounds were tested.
The plates were sealed under natural lighting conditions, wrapped in aluminium foil and incubated in the dark for a further 20 hours.
The resulting assay signal was determined on the Perkin Elmer EnVision plate reader. The minimum value was subtracted from all values, and the signal plotted against compound concentration to generate IC50 data. The method used to generate the compound dilutions was recorded with the IC50 value in the database.

[1] = compound preparation: Genesis (aqueous dilution)
[2] = compound preparation: Echo (acoustic dispensing)

CN(c1ccnc(Nc2cc(Cl)cc(N3CCOCC3)n2)n1)c1ccc(F)c(Cl)c1F [Example 1, N′-(3-chloro-2,4-difluoro-phenyl)-N-(4-chloro-6-morpholin-4-yl-pyridin-2-yl)-N′-methyl-pyrimidine-2,4-diamine]
pIC50 (human EphB4): 6.45 | pIC50 (recombinant EphB4; [1]): 4.42

Cc1ccc(CO)cc1N(C)c1ccnc(Nc2cc(Cl)nc(N3CCOCC3)c2)n1 [Example 4.3, [3-[[2-[(2-chloro-6-morpholin-4-yl-pyridin-4-yl)amino]pyrimidin-4-yl]-methyl-amino]-4-methyl-phenyl]methanol]
pIC50 (recombinant EphB4; [1]): 6.33

Cc1ccc(CO)cc1N(C)c1ccnc(Nc2cc(N3CCOCC3)cc(N3CCOCC3)n2)n1 [Example 4.2, [3-[[2-[(4,6-dimorpholin-4-ylpyridin-2-yl)amino]pyrimidin-4-yl]-methyl-amino]-4-methyl-phenyl]methanol]
pIC50 (human EphB4): 6.52 | pIC50 (recombinant EphB4; [1]): 6.34

CN(c1ccnc(Nc2cc(Cl)nc(N3CCOCC3)c2)n1)c1ccc(F)c(Cl)c1F [Example 2.3, N′-(3-chloro-2,4-difluoro-phenyl)-N-(2-chloro-6-morpholin-4-yl-pyridin-4-yl)-N′-methyl-pyrimidine-2,4-diamine]
pIC50 (recombinant EphB4; [1]): 5.75

CN(c1ccnc(Nc2cc(N3CCOCC3)nc(N3CCOCC3)c2)n1)c1ccc(F)c(Cl)c1F [Example 2.1, N′-(3-chloro-2,4-difluoro-phenyl)-N-(2,6-dimorpholin-4-ylpyridin-4-yl)-N′-methyl-pyrimidine-2,4-diamine]
pIC50 (human EphB4): 8.10 | pIC50 (recombinant EphB4; [1]): 5.95

CN(c1ccnc(Nc2cc(N3CCOCC3)cc(N3CCOCC3)n2)n1)c1ccc(F)c(Cl)c1F [Example 2.2, N′-(3-chloro-2,4-difluoro-phenyl)-N-(4,6-dimorpholin-4-ylpyridin-2-yl)-N′-methyl-pyrimidine-2,4-diamine]
pIC50 (recombinant EphB4; [1]): 6.09

COc1ccc(C)c(N(C)c2ccnc(Nc3cc(N4CCOCC4)nc(N4CCN(C)CC4)c3)n2)c1 [Example 5.1, N4-(5-methoxy-2-methylphenyl)-N4-methyl-N2-(2-(4-methylpiperazin-1-yl)-6-morpholinopyridin-4-yl)pyrimidine-2,4-diamine]
pIC50 (recombinant EphB4; [2]): 8.64

CN(c1ccnc(Nc2cc(N3CCOCC3)nc(N3CCOCC3)n2)n1)c1ccc(F)c(Cl)c1F [Example 2.4, N′-(3-chloro-2,4-difluoro-phenyl)-N-(2,6-dimorpholin-4-ylpyrimidin-4-yl)-N′-methyl-pyrimidine-2,4-diamine]
pIC50 (recombinant EphB4; [1]): 5.20

Cc1ccc(CO)cc1N(C)c1ccnc(Nc2cc(Cl)cc(N3CCOCC3)n2)n1 [Example 3, [3-[[2-[(4-chloro-6-morpholin-4-yl-pyridin-2-yl)amino]pyrimidin-4-yl]-methyl-amino]-4-methyl-phenyl]methanol]
pIC50 (human EphB4): 7.55 | pIC50 (recombinant EphB4; [1]): 6.70

COc1ccc(C)c(N(C)c2ccnc(Nc3cc(N4CCOCC4)nc(N4CCC(O)CC4)c3)n2)c1 [Example 5.2, 1-(4-(4-((5-methoxy-2-methylphenyl)(methyl)amino)pyrimidin-2-ylamino)-6-morpholinopyridin-2-yl)piperidin-4-ol]
pIC50 (recombinant EphB4; [2]): 8.49
